The source of these data is patent publication US8846933B2, “N-link hydroxamic acid derivatives useful as antibacterial agents” (Pfizer Inc., priority 2009, dated 2014).

Holding throughout (format): cell-based
Experiment [1] concerns Acinetobacter baumanii/haemolyticus: Multidrug-resistant clinical isolate (AB-3167). Put plainly: MIC determination (CLSI), strain AB-3167. Conditions: unit assumed. The method, boiled down: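 MIC measured by broth dilution per CLSI guidelines (M7-A7, M100-S18) against multidrug-resistant clinical isolate AB-3167 of Acinetobacter baumanii/haemolyticus.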
For experiment [2], the system named is Escherichia coli EC-1: VOGEL, mouse virulent. Put plainly: MIC determination (CLSI), strain EC-1. As to conditions: Escherichia coli EC-1, VOGEL, mouse virulent; unit assumed. In a few lines:
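The mouse-virulent VOGEL isolate of E. coli, EC-1, served as test organism. Minimum inhibitory concentration was measured by CLSI dilution methodology (M7-A7; M100-S18 standards).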

Experiment [3] concerns Pseudomonas aeruginosa UI-18: Wild-type (PA-7). As to the kind of experiment: MIC determination (CLSI), strain PA-7. Conditions: Pseudomonas aeruginosa UI-18, wild-type; unit assumed. In a few lines: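 MIC determined by broth dilution per CLSI M7-A7 guidelines with M100-S18 interpretive standards. Test organism: wild-type Pseudomonas aeruginosa UI-18, designated PA-7.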

The structures appear in SMILES notation. Bounds are passed on as bounds.

Take `C[C@@](CCn1ccc(C2=CCN(c3ncccn3)CC2)cc1=O)(C(=O)NO)S(C)(=O)=O` [Example 67, (2R)-N-Hydroxy-2-methyl-2-(methylsulfonyl)-4-(2-oxo-1′-pyrimidin-2-yl-1′,2′,3′,6′-tetrahydro-4,4′-bipyridin-1(2H)-yl)butanamide]: the AB-3167 (MIC) in experiment [1] was over 64 µg/mL. This compound also registered an EC-1 (MIC) in experiment [2] of 8 µg/mL. Besides, the PA-7 (MIC) in experiment [3] is 8 µg/mL.

`C[C@@](CCn1ccc(-c2ccc3ccccc3c2)cc1=O)(C(=O)NO)S(C)(=O)=O` [Example 68-A, (2R)-N-hydroxy-2-methyl-2-(methylsulfonyl)-4-[4-(2-naphthyl)-2-oxopyridin-1(2H)-yl]butanamide] showed an AB-3167 (MIC) in experiment [1] of over 64 µg/mL. The EC-1 (MIC) in experiment [2] was determined as 0.06 µg/mL. For the same compound, the PA-7 (MIC) in experiment [3] was determined as 0.5 µg/mL.

Consider `C[C@@](CCn1ccc(-c2ccc(Cl)c(F)c2)cc1=O)(C(=O)NO)S(C)(=O)=O` [Example 68-B, (2R)-4-[4-(4-chloro-3-fluorophenyl)-2-oxopyridin-1(2H)-yl]-N-hydroxy-2-methyl-2-(methylsulfonyl)butanamide], for which the AB-3167 (MIC) in experiment [1] is over 64 µg/mL. In experiment [2], this compound came in with an EC-1 (MIC) of 0.5 µg/mL. Further, the PA-7 (MIC) in experiment [3] stood at 0.5 µg/mL.

Compound `C[C@@](CCn1ccc(-c2ccc(Cl)c(Cl)c2)cc1=O)(C(=O)NO)S(C)(=O)=O` [Example 68-C, (2R)-4-[4-(3,4-dichlorophenyl)-2-oxopyridin-1(2H)-yl]-N-hydroxy-2-methyl-2-(methylsulfonyl)butanamide] gave an AB-3167 (MIC) in experiment [1] of over 64 µg/mL. This compound also displayed an EC-1 (MIC) in experiment [2] of 0.125 µg/mL. In addition, in experiment [3], the PA-7 (MIC) is 0.5 µg/mL.

`C[C@@](CCn1ccc(-c2ccc(-c3nccs3)cc2)cc1=O)(C(=O)NO)S(C)(=O)=O` [Example 68-D, (2R)-N-hydroxy-2-methyl-2-(methylsulfonyl)-4-{2-oxo-4-[4-(1,3-thiazol-2-yl)phenyl]pyridin-1(2H)-yl}butanamide] came in with an AB-3167 (MIC) in experiment [1] of over 64 µg/mL. In experiment [2], the EC-1 (MIC) is 0.06 µg/mL. In experiment [3], the PA-7 (MIC) amounted to 0.5 µg/mL.

In turn, `Cc1cccc(-c2ccn(CC[C@](C)(C(=O)NO)S(C)(=O)=O)c(=O)c2)c1Cl` [Example 68-E, (2R)-4-[4-(2-chloro-3-methylphenyl)-2-oxopyridin-1(2H)-yl]-N-hydroxy-2-methyl-2-(methylsulfonyl)butanamide] had an AB-3167 (MIC) in experiment [1] of 64 µg/mL. This compound also registered an EC-1 (MIC) in experiment [2] of 0.25 µg/mL. Also, the PA-7 (MIC) in experiment [3] turned out to be 0.5 µg/mL.

Compound `C[C@@](CCn1ccc(-c2ccc(-c3ccon3)cc2)cc1=O)(C(=O)NO)S(C)(=O)=O` [Example 68-F, (2R)-N-hydroxy-4-[4-(4-isoxazol-3-ylphenyl)-2-oxopyridin-1(2H)-yl]-2-methyl-2-(methylsulfonyl)butanamide] showed an AB-3167 (MIC) in experiment [1] of over 64 µg/mL. The compound further registered an EC-1 (MIC) in experiment [2] of 0.25 µg/mL. In experiment [3], the PA-7 (MIC) was 0.5 µg/mL.

As for `CCC(=O)c1ccc(-c2ccn(CC[C@](C)(C(=O)NO)S(C)(=O)=O)c(=O)c2)cc1` [Example 68-G, (2R)-N-hydroxy-2-methyl-2-(methylsulfonyl)-4-[2-oxo-4-(4-propionylphenyl)pyridin-1(2H)-yl]butanamide], the AB-3167 (MIC) in experiment [1] is over 64 µg/mL. Also, the EC-1 (MIC) in experiment [2] turned out to be 0.5 µg/mL. Also, the PA-7 (MIC) in experiment [3] came to 1 µg/mL.

Turning to `C[C@@](CCn1ccc(-c2ccc([C@H]3C[C@@](C)(O)C3)cc2)cc1=O)(C(=O)NO)S(C)(=O)=O` [Example 68-H, (2R)-N-hydroxy-4-{4-[4-(cis-3-hydroxy-3-methylcyclobutyl)phenyl]-2-oxopyridin-1(2H)-yl}-2-methyl-2-(methylsulfonyl)butanamide], in experiment [1], the AB-3167 (MIC) is over 64 µg/mL. This compound also had an EC-1 (MIC) in experiment [2] of 2 µg/mL. In experiment [3], this compound gave a PA-7 (MIC) of 1 µg/mL.

With `C[C@@](CCn1ccc(-c2ccc(C(F)(F)F)cc2)cc1=O)(C(=O)NO)S(C)(=O)=O` [Example 68-I, (2R)-N-hydroxy-2-methyl-2-(methylsulfonyl)-4-{2-oxo-4-[4-(trifluoromethyl)phenyl]pyridin-1(2H)-yl}butanamide], the AB-3167 (MIC) in experiment [1] was over 64 µg/mL. Besides, the EC-1 (MIC) in experiment [2] is 1 µg/mL. This compound also registered a PA-7 (MIC) in experiment [3] of 1 µg/mL.

Take `Cc1c(-c2ccc(-n3nccn3)cc2)ccn(CC[C@](C)(C(=O)NO)S(C)(=O)=O)c1=O` [Example 68-J, (2R)-N-hydroxy-2-methyl-4-{3-methyl-2-oxo-4-[4-(2H-1,2,3-triazol-2-yl)phenyl]pyridin-1(2H)-yl}-2-(methylsulfonyl)butanamide]: the AB-3167 (MIC) in experiment [1] was over 64 µg/mL. Also, the EC-1 (MIC) in experiment [2] worked out at 0.125 µg/mL. In experiment [3], this compound yielded a PA-7 (MIC) of 1 µg/mL.

`C[C@@](CCn1ccc(C2=CCCCC2)cc1=O)(C(=O)NO)S(C)(=O)=O` [Example 68-K, (2R)-4-(4-cyclohex-1-en-1-yl-2-oxopyridin-1(2H)-yl)-N-hydroxy-2-methyl-2-(methylsulfonyl)butanamide] yielded an AB-3167 (MIC) in experiment [1] of over 64 µg/mL. For the same compound, the EC-1 (MIC) in experiment [2] amounted to 4 µg/mL. Besides, in experiment [3], the PA-7 (MIC) turned out to be 1 µg/mL.

In experiment [1], `C[C@@](CCn1ccc(C2=CCCCCC2)cc1=O)(C(=O)NO)S(C)(=O)=O` [Example 68-L, (2R)-4-(4-cyclohept-1-en-1-yl-2-oxopyridin-1(2H)-yl)-N-hydroxy-2-methyl-2-(methylsulfonyl)butanamide] came in with an AB-3167 (MIC) of over 64 µg/mL. This compound displayed an EC-1 (MIC) in experiment [2] of 2 µg/mL. This compound also registered a PA-7 (MIC) in experiment [3] of 1 µg/mL.

`C[C@@](CCn1ccc(-c2ccc(CC3CC(O)C3)cc2)cc1=O)(C(=O)NO)S(C)(=O)=O` (stereo partly drawn) [Example 68-M, (2R)-N-hydroxy-4-[4-{4-[(3-hydroxycyclobutyl)methyl]phenyl}-2-oxopyridin-1(2H)-yl]-2-methyl-2-(methylsulfonyl)butanamide]: the AB-3167 (MIC) in experiment [1] is over 64 µg/mL. This compound had an EC-1 (MIC) in experiment [2] of 0.5 µg/mL. In experiment [3], the PA-7 (MIC) worked out at 2 µg/mL.

With `C[C@H](O)c1ccc2cc(-c3ccn(CC[C@](C)(C(=O)NO)S(C)(=O)=O)c(=O)c3)ccc2c1` [Example 68-N, (2R)-N-hydroxy-4-[4-{6-[(1S)-1-hydroxyethyl]-2-naphthyl}-2-oxopyridin-1(2H)-yl]-2-methyl-2-(methylsulfonyl)butanamide], the AB-3167 (MIC) in experiment [1] was over 64 µg/mL. Moreover, the EC-1 (MIC) in experiment [2] is 0.5 µg/mL. In experiment [3], this compound had a PA-7 (MIC) of 2 µg/mL.

On to `CC(CCn1ccc(-c2ccc3c(c2)CCC(O)C3)cc1=O)(C(=O)NO)S(C)(=O)=O` (stereo not drawn) [Example 68-O, N-hydroxy-4-[4-(6-hydroxy-5,6,7,8-tetrahydronaphthalen-2-yl)-2-oxopyridin-1(2H)-yl]-2-methyl-2-(methylsulfonyl)butanamide], for which the AB-3167 (MIC) in experiment [1] is over 64 µg/mL. The compound also registered an EC-1 (MIC) in experiment [2] of 16 µg/mL. For the same compound, in experiment [3], the PA-7 (MIC) was found to be 8 µg/mL.

As to `C[C@@](CCn1ccc(-c2ccc(-c3ccccc3)s2)cc1=O)(C(=O)NO)S(C)(=O)=O` [Example 68-P, (2R)-N-hydroxy-2-methyl-2-(methylsulfonyl)-4-[2-oxo-4-(5-phenyl-2-thienyl)pyridin-1(2H)-yl]butanamide], in experiment [1], the AB-3167 (MIC) is over 64 µg/mL. The compound further had an EC-1 (MIC) in experiment [2] of 0.06 µg/mL. This compound also showed a PA-7 (MIC) in experiment [3] of 8 µg/mL.

As to `CC(O)c1ccc(-c2ccn(CCC(C)(C(=O)NO)S(C)(=O)=O)c(=O)c2)cc1` (stereo not drawn) [Example 68-Q, N-hydroxy-4-{4-[4-(1-hydroxyethyl)phenyl]-2-oxopyridin-1(2H)-yl}-2-methyl-2-(methylsulfonyl)butanamide], the AB-3167 (MIC) in experiment [1] was over 64 µg/mL. Also, the EC-1 (MIC) in experiment [2] was determined as 64 µg/mL. The compound further displayed a PA-7 (MIC) in experiment [3] of 16 µg/mL.

As for `Cn1c(-c2ccn(CCC(C)(C(=O)NO)S(C)(=O)=O)c(=O)c2)cc2ccccc21` (stereo not drawn) [Example 68-R, N-hydroxy-2-methyl-4-[4-(1-methyl-1H-indol-2-yl)-2-oxopyridin-1(2H)-yl]-2-(methylsulfonyl)butanamide], the AB-3167 (MIC) in experiment [1] is over 64 µg/mL. In experiment [2], the EC-1 (MIC) came to 4 µg/mL. In addition, the PA-7 (MIC) in experiment [3] stood at 8 µg/mL.

For `CC(CCn1ccc(OCCC2CCCC2)cc1=O)(C(=O)NO)S(C)(=O)=O` (stereo not drawn) [Example 68-S, 4-[4-(2-cyclopentylethoxy)-2-oxopyridin-1(2H)-yl]-N-hydroxy-2-methyl-2-(methylsulfonyl)butanamide], the AB-3167 (MIC) in experiment [1] was found to be 64 µg/mL. The compound further had an EC-1 (MIC) in experiment [2] of 16 µg/mL. Besides, the PA-7 (MIC) in experiment [3] is 32 µg/mL.

For the compound `CC(CCn1ccc(OCCc2ccccc2)cc1=O)(C(=O)NO)S(C)(=O)=O` (stereo not drawn) [Example 68-U, N-hydroxy-2-methyl-2-(methylsulfonyl)-4-[2-oxo-4-(2-phenylethoxy)pyridin-1(2H)-yl]butanamide], the AB-3167 (MIC) in experiment [1] is over 64 µg/mL. This compound also displayed an EC-1 (MIC) in experiment [2] of 32 µg/mL. The same compound registered a PA-7 (MIC) in experiment [3] of 64 µg/mL.

Regarding `CC(=O)c1ccc(-c2ccn(CCC(C)(C(=O)NO)S(C)(=O)=O)c(=O)c2)cc1` (stereo not drawn) [Example 68-V, 4-[4-(4-acetylphenyl)-2-oxopyridin-1(2H)-yl]-N-hydroxy-2-methyl-2-(methylsulfonyl)butanamide], the AB-3167 (MIC) in experiment [1] is over 64 µg/mL. The EC-1 (MIC) in experiment [2] is 4 µg/mL. The compound further registered a PA-7 (MIC) in experiment [3] of 4 µg/mL.
